Legend:
[1] = tested on: HT-29; assay: Cytotoxicity against human HT29 cells at 100 uM; type: functional
[2] = tested on: NCI-H460; assay: Cytotoxicity against human H460 cells at 100 uM; type: functional
[3] = tested on: DU-145; assay: Cytotoxicity against human DU145 cells at 100 uM; type: functional
[4] = Cytotoxicity against human BE2-C cells at 100 uM; type: functional; conditions: BE(2)-C
[5] = Inhibition of Protein phosphatase 2A; design: species or system Homo sapiens
[6] = tested on: MCF7; assay: Cytotoxicity against human MCF7 cells at 100 uM; type: functional
[7] = Inhibition of Protein phosphatase 1; design: species or system Homo sapiens
[8] = tested on: SW480; assay: Cytotoxicity against human SW480 cells at 100 uM; type: functional
[9] = Cytotoxicity against human SJ-G2 cells at 100 uM; type: functional
[10] = tested on: A2780; assay: Cytotoxicity against human A2780 cells at 100 uM; type: functional
[11] = tested on: A-431; assay: Cytotoxicity against human A431 cells at 100 uM; type: functional
[12] = organism: Homo sapiens; assay: Inhibition of Protein phosphatase 2A at 100 uM
[13] = organism: Homo sapiens; assay: Inhibition of Protein phosphatase 1 at 100 uM
[14] = tested on: NCI-H460; assay: Cytotoxicity against human H460 cells; type: functional
[15] = tested on: DU-145; assay: Cytotoxicity against human DU145 cells; type: functional
[16] = tested on: HT-29; assay: Cytotoxicity against human HT29 cells; type: functional
[17] = Cytotoxicity against human BE2-C cells; type: functional; conditions: BE(2)-C
[18] = tested on: SW480; assay: Cytotoxicity against human SW480 cells; type: functional
[19] = tested on: MCF7; assay: Cytotoxicity against human MCF7 cells; type: functional
[20] = tested on: A-431; assay: Cytotoxicity against human A431 cells; type: functional
[21] = Cytotoxicity against human SJ-G2 cells; type: functional
[22] = tested on: A2780; assay: Cytotoxicity against human A2780 cells; type: functional

Row | Structure (SMILES) | IC50 [5] | IC50 [7] | inhibition at 100 µM [1] | inhibition at 100 µM [2] | inhibition at 100 µM [3] | inhibition at 100 µM [4] | inhibition at 100 µM [6] | inhibition at 100 µM [8] | inhibition at 100 µM [9] | inhibition at 100 µM [10] | inhibition at 100 µM [11] | GI50 [14] | GI50 [15] | GI50 [16] | GI50 [17] | GI50 [18] | GI50 [19] | GI50 [20] | GI50 [21] | GI50 [22] | other results
1 | O=C(NCCN1CCOCC1)NC(=O)C1C(C(=O)O)[C@@H]2CC[C@H]1O2 (stereo partly specified) | 43000 nM | 31 µM | 37% | 10% | 17% | 26% | 7.5% | 14% | 19% | 14% | 23% |  |  |  |  |  |  |  |  |  | 
2 | O=C(NCCc1cnc[nH]1)NC(=O)C1C(C(=O)O)[C@@H]2CC[C@H]1O2 (stereo partly specified) |  |  | 21% | 25% | 14% | 23% | 17% | 33% | 27% | 20% | 32% |  |  |  |  |  |  |  |  |  | inhibition [12]: 56%; inhibition [13]: 35%
3 | C[C@@]12C(=O)OC(=O)[C@]1(C)[C@H]1CC[C@@H]2O1 [CANTHARIDIN] | 1200 nM | 11 µM |  |  |  |  |  |  |  |  |  | 4 µM | 2400 nM | 3.3 µM | 4.9 µM | 4.6 µM | 7 µM | 3.4 µM | 3000 nM | 5.8 µM | 
4 | O=C1OC(=O)[C@H]2[C@@H]1[C@@H]1CC[C@H]2O1 | 3000 nM | 9 µM |  |  |  |  |  |  |  |  |  | 45 µM | 3000 nM | 48 µM | 56 µM | 35 µM | 64 µM | 33 µM | 35000 nM | 59 µM | 

Now from value to molecule, other results behind:

Row | IC50 [5] | IC50 [7] | Structure (SMILES) | inhibition at 100 µM [1] | inhibition at 100 µM [2] | inhibition at 100 µM [3] | inhibition at 100 µM [4] | inhibition at 100 µM [6] | inhibition at 100 µM [8] | inhibition at 100 µM [9] | inhibition at 100 µM [10] | inhibition at 100 µM [11] | GI50 [14] | GI50 [15] | GI50 [16] | GI50 [17] | GI50 [18] | GI50 [19] | GI50 [20] | GI50 [21] | GI50 [22] | other results
5 | 790 nM | 5.9 µM | C[C@]1(C(=O)O)[C@@H]2CC[C@@H](O2)[C@@]1(C)C(=O)NC(=O)N1CCOCC1 |  |  |  |  |  |  |  |  |  | 3.3 µM | 1700 nM | 2.8 µM | 2.5 µM | 3.9 µM | 5.8 µM | 2.9 µM | 2100 nM | 4.9 µM | 
6 | 7900 nM | 6.5 µM | O=C(NC(=O)Nc1ccc(N2CCOCC2)cc1)NC(=O)C1C(C(=O)O)[C@@H]2CC[C@H]1O2 (stereo partly specified) | 23% | 19% | 17% | 13% | 20% | 29% | 21% | 18% | 21% |  |  |  |  |  |  |  |  |  | 

From ChEMBL document CHEMBL1148019, “Heterocyclic substituted cantharidin and norcantharidin analogues--synthesis, protein phosphatase (1 and 2A) inhibition, and anti-cancer activity” (Bioorg Med Chem Lett, 2007)
